Experimental data from paper PMC10058245 (Science Advances, 2023).
Changes are numbered by the printed parent chain.

Tests used:
[1] = biological target: T1, VRAC (SWELL1/LRRC8A-containing volume-regulated anion channel) (Homo sapiens, UniProt Q8IWT6); experiment: whole-cell patch clamp of hypotonicity-induced VRAC currents; type: cell-based
T1 sequence (Q8IWT6 1-810): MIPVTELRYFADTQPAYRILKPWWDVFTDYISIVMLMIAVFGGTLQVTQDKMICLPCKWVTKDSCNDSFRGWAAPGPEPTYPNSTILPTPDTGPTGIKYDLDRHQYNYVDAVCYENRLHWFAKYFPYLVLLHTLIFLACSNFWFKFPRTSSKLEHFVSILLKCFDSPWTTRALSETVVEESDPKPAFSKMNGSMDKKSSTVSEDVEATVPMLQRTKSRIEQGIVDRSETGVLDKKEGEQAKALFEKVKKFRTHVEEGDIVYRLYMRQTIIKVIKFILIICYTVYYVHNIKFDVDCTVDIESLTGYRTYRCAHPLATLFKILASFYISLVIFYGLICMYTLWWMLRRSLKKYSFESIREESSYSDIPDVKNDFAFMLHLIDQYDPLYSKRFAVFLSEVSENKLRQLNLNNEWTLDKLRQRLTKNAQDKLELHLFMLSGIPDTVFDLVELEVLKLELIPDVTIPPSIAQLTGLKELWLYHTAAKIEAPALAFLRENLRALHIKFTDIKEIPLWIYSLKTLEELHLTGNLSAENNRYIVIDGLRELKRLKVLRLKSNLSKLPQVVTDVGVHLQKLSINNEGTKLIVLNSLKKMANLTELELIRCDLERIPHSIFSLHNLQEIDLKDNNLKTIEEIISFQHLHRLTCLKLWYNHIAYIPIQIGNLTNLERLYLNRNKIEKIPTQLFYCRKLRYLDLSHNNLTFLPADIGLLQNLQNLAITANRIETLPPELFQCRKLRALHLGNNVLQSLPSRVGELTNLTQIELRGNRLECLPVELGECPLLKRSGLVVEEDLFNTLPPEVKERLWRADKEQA

[2] = biological target: T2, VRAC (Swell1/Lrrc8a-containing volume-regulated anion channel) (Mus musculus, UniProt Q80WG5); experiment: whole-cell patch clamp of hypotonicity-induced VRAC currents in BV2 microglia; type: cell-based
T2 sequence (Q80WG5 1-810): T1 sequence (Q8IWT6 1-810) with P75S, G76S, I86V, I276A, A591V, I715V, T722A, N792S

IC50 [1] | IC50 [2] | SMILES
4.9 µM |  | COc1cc(C(=O)NS(=O)(=O)c2ccccc2C)ccc1Cc1cn(C)c2ccc(NC(=O)OC3CCCC3)cc12 [zafirlukast]
3.8 µM | 4.1 µM | O=c1oc2ccccc2c(O)c1Cc1c(O)c2ccccc2oc1=O [dicumarol]
